Reference: patent US11407745B2, “Indazole derivatives and pharmaceutical composition for preventing, alleviating or treating cancer containing the same” (KOREA INSTITUTE OF SCIENCE AND TECHNOLOGY, priority 2019, dated 2022)
Read-outs that look alike come from different tables or passages of the source.

Key:
DDR1 = DDR1 (Homo sapiens, UniProt Q08345); assay: Hot Spot kinase assay, DDR1; assay type: biochemical; conditions: for IC50: ATP 10 μM, 25° C., 120 minutes
Experimental: The kinase inhibitory effect of the compounds of Compound Nos. 1 to 16 was measured. Kinase analysis was conducted in a “Hot Spot” analysis platform manner. Specific kinase/substrate pairs and cofactors were prepared in a reaction buffer (20 mM HEPES (pH 7.5), 10 mM MgCl2, 1 mM EGTA, 0.02% Brij35, 0.02 mg/ml BSA, 0.1 mM Na3VO4, 2 mM DTT and 1% DMSO). 10 concentrations of compounds that were serially diluted 3 times in sequence from a concentration of 20 μM were added to the reaction mixture, and a mixture of ATP (10 μM, Sigma) and 33P ATP (Perkin Elmer) was added thereto after 20 minutes. The reaction was conducted at 25° C. for 120 minutes, the spots during the reaction were filtered using P81 ion exchange filter paper (Whatman #3698-915), and the unbound phosphate was removed by washing with 0.1% phosphoric acid using a filter.

[1] = test system: K-562 (human leukemia cancer) cells; assay: MTT assay, anti-proliferative effect on K-562; assay type: cell-based; conditions: for GI50: Homo sapiens, MTT; for fold higher inhibitory effect than imatinib (K-562 GI50): versus imatinib positive control; for fold higher inhibitory effect than nilotinib (K-562 GI50): versus nilotinib
Experimental: The cell line used for an MTT assay was K-562 (human leukemia cancer), and was obtained from the Korea Cell Line Bank and then cultured. The medium herein used was RPMI 1640 medium containing 10% fetal bovine serum, and the culture was conducted in a constant-temperature constant-humidity incubator (37° C., 5% CO2). The cells were seeded at a density of 3×10^3 cells/well in a 96-well microplate and cultured in a CO2 incubator for 24 hours, the medium was removed, and further culture was performed for 72 hours in 100 μl of respective inhibitor solutions diluted to different concentrations. 15 μl of an MTT solution (Promega, CellTiter 96) was added thereto and cultured for 4 hours. Then, blue formazan, formed by adding 100 μl of a stop solution (Promega, CellTiter 96), was dissolved.
After the culture solution was allowed to stand for 18 hours or more, absorbance was measured at 570 nm to obtain IC50 (a concentration at which 50% of cancer cells are inhibited).

ABL^wild [2] = target: T1, ABL^wild (Homo sapiens, UniProt P00519); assay: Hot Spot kinase assay, ABL wild type; assay type: biochemical; conditions: for IC50: ATP 10 μM, 25° C., 120 minutes
Experimental: (§1) Kinase analysis was conducted in a “Hot Spot” analysis platform manner. Specific kinase/substrate pairs and cofactors were prepared in a reaction buffer (20 mM HEPES (pH 7.5), 10 mM MgCl2, 1 mM EGTA, 0.02% Brij35, 0.02 mg/ml BSA, 0.1 mM Na3VO4, 2 mM DTT and 1% DMSO). 10 concentrations of compounds that were serially diluted 3 times in sequence from a concentration of 20 μM were added to the reaction mixture, and a mixture of ATP (10 μM, Sigma) and 33P ATP (Perkin Elmer) was added thereto after 20 minutes.

ABL^T315I [3] = target: T2, ABL^T315I (Homo sapiens, UniProt P00519, T315I); assay: Hot Spot kinase assay, ABL T315I; assay type: biochemical; conditions: for IC50: ATP 10 μM, 25° C., 120 minutes
Experimental: as §1

[4] = test system: K-562 (human leukemia cancer) cells; conditions: positive controls, values in the references; read-out: GI50, μm K562; cited from earlier work
ABL^T315I [5] = target: T2, ABL^T315I; conditions: positive controls, values in the references; cited from earlier work
ABL^wild [6] = target: T1, ABL^wild; conditions: positive controls, values in the references; cited from earlier work
patients = patients administered with ponatinib; cited from earlier work
CML patients = conditions: primary therapeutic agent for CML patients; cited from earlier work
[7] = K562, 72 hours treatment, read-out: GI50, μm K562
[8] = K562, 72 hours, read-out: GI50 against K-562 cancer cells

Sequence of DDR1 (Q08345 19-913): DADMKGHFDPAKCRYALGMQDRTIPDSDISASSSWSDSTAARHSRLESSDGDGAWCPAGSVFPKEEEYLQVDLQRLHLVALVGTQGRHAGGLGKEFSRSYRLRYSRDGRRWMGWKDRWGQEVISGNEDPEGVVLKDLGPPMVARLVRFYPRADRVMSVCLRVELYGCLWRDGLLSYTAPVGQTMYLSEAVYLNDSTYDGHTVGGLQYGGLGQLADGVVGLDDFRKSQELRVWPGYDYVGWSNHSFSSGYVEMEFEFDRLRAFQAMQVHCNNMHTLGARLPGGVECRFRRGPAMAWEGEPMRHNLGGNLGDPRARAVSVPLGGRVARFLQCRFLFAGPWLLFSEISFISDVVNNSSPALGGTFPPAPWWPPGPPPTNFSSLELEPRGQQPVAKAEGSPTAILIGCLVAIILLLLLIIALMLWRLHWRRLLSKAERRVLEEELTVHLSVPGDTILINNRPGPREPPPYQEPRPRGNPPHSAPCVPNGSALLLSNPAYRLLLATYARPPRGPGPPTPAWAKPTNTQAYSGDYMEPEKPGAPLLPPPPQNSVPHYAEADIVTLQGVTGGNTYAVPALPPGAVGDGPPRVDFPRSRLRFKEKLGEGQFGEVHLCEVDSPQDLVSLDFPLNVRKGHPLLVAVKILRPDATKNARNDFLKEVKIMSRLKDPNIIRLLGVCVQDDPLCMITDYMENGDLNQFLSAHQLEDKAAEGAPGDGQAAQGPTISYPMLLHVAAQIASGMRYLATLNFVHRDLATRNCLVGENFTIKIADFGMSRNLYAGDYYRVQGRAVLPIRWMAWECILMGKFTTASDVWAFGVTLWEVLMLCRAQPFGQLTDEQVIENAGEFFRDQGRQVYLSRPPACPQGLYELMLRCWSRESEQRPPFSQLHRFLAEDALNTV

| SMILES | IC50 (DDR1) | GI50 [1, 7] | IC50 (ABL^wild [2]) | IC50 (ABL^T315I [3]) | further results |
| --- | --- | --- | --- | --- | --- |
| Nc1n[nH]c2cccc(C#Cc3cccc(NC(=O)c4cc(F)cc(C(F)(F)F)c4)c3)c12 [Compound No. 4, N-(3-((3-Amino-1H-indazol-4-yl)ethynyl)phenyl)-3-fluoro-5-(trifluoromethyl)benzamide] | 82.8 nM | 2100 ± 1110 nM | 172 nM | – | – |
| Nc1n[nH]c2cccc(C#Cc3cccc(NC(=O)c4ccc(N5CCOCC5)c(C(F)(F)F)c4)c3)c12 [Compound No. 8] | 14.7 nM | – | 5.21 nM | 183 nM | inhibitory activity against DDR1 (in words) (DDR1): excellent inhibitory activity; proliferation inhibitory effect on K-562 cancer cells (in words) [1]: excellent anti-proliferative activity; GI50 [1, 8]: 20 nM; fold higher inhibitory effect than imatinib (K-562 GI50) [1]: 13 fold; fold higher inhibitory effect than nilotinib (K-562 GI50) [1]: 4 fold; inhibitory activity against the T315I point mutation of ABL (in words) (ABL^T315I [3]): exhibited inhibitory activity; inhibitory activity against ABL (in words) (ABL^wild [2]): excellent inhibitory activity |
| Cc1cn(-c2cc(NC(=O)c3ccc(C)c(Nc4nccc(-c5cccnc5)n4)c3)cc(C(F)(F)F)c2)cn1 [Nilotinib] | – | – | – | – | GI50 [4]: 80 ± 90 nM |
| Nc1n[nH]c2cccc(C#Cc3cccc(C(=O)Nc4ccc(Cl)c(C(F)(F)F)c4)c3)c12 [Compound No. 14, 3-((3-Amino-1H-indazol-4-yl)ethynyl)-N-(4-chloro-3-(trifluoromethyl)phenyl)benzamide] | 20 nM | 3330 ± 1180 nM | 255 nM | – | – |
| Cc1ccc(C(=O)Nc2cccc(C#Cc3cccc4[nH]nc(N)c34)c2)cc1C(F)(F)F [Compound No. 6, N-(3-((3-Amino-1H-indazol-4-yl)ethynyl)phenyl)-4-methyl-3-(trifluoromethyl)benzamide] | 22.6 nM | 1620 ± 1240 nM | 104 nM | 2960 nM | – |
| Nc1n[nH]c2cccc(C#Cc3cccc(C(=O)Nc4cc(C(F)(F)F)cc(C(F)(F)F)c4)c3)c12 [Compound No. 10, 3-((3-Amino-1H-indazol-4-yl)ethynyl)-N-(3,5-bis(trifluoromethyl)phenyl)benzamide] | 33 nM | 460 ± 1340 nM | 186 nM | – | – |
| Nc1n[nH]c2cccc(C#Cc3cccc(NC(=O)c4cc(C(F)(F)F)cc(C(F)(F)F)c4)c3)c12 [Compound No. 2, 4N-(3-((3-Amino-1H-indazol-4-yl)ethynyl)phenyl)-3,5-bis (trifluoromethyl)benzamide] | 96.5 nM | – | 667 nM | – | – |
| CN1CCN(c2ccc(C(=O)Nc3cccc(C#Cc4cccc5[nH]nc(N)c45)c3)cc2C(F)(F)F)CC1 [Compound No. 7, N-(3-((3-Amino-1H-indazol-4-yl)ethynyl)phenyl)-4-(4-methylpiperazin-1-yl)-3-(trifluoromethyl)benzamide] | 31.9 nM | – | – | – | – |
| Nc1n[nH]c2cccc(C#Cc3cccc(NC(=O)c4cc(N5CCOCC5)cc(C(F)(F)F)c4)c3)c12 [Compound No. 5, N-(3-((3-Amino-1H-indazol-4-yl)ethynyl)phenyl)-3-morpholino-5-(trifluoromethyl)benzamide] | 20.1 nM | 2140 ± 1150 nM | 637 nM | – | – |
| CCN1CCN(Cc2ccc(NC(=O)c3cccc(C#Cc4cccc5[nH]nc(N)c45)c3)cc2C(F)(F)F)CC1 [Compound No. 15, 3-((3-Amino-1H-indazol-4-yl)ethynyl)-N-(4-((4-ethylpiperazin-1-yl)methyl)-3-(trifluoromethyl)phenyl)benzamide] | 3.7 nM | 30 nM | 0.625 nM | 5.82 nM | inhibitory activity against DDR1 (in words) (DDR1): excellent inhibitory activity; proliferation inhibitory effect on K-562 cancer cells (in words) [1]: excellent anti-proliferative activity; GI50 [1, 8]: 30 nM; fold higher inhibitory effect than imatinib (K-562 GI50) [1]: 8.9 fold; fold higher inhibitory effect than nilotinib (K-562 GI50) [1]: 2.7 fold; inhibitory activity against the T315I point mutation of ABL (in words) (ABL^T315I [3]): excellent inhibitory activity; inhibitory activity against ABL (in words) (ABL^wild [2]): excellent inhibitory activity |
| CN1CCN(Cc2cc(NC(=O)c3cccc(C#Cc4cccc5[nH]nc(N)c45)c3)cc(C(F)(F)F)c2)CC1 [Compound No. 12] | 29.1 nM | 290 nM | 60.5 nM | 1150 nM | – |
| Cc1cn(-c2cc(C(=O)Nc3cccc(C#Cc4cccc5[nH]nc(N)c45)c3)cc(C(F)(F)F)c2)cn1 [Compound No. 3] | 13.1 nM | 120 nM | 17.1 nM | 1290 nM | – |
| Nc1n[nH]c2cccc(C#Cc3cccc(NC(=O)c4cccc(C(F)(F)F)c4)c3)c12 [Compound No. 1, N-(3-((3-Amino-1H-indazol-4-yl)ethynyl)phenyl)-3-(trifluoromethyl)benzamide] | 53.3 nM | 1450 ± 1160 nM | 313 nM | 2550 nM | – |
| Nc1n[nH]c2cccc(C#Cc3cccc(C(=O)Nc4cccc(C(F)(F)F)c4)c3)c12 [Compound No. 9] | 18.4 nM | 3750 ± 1220 nM | 210 nM | – | – |
| Nc1n[nH]c2cccc(-c3ccc(C(=O)N4CCN(C(=O)c5ccc(Cl)cc5Cl)CC4)cc3)c12 [(4-(4-(3-amino-1H-indazol-4-yl)benzoyl)piperazin-1-yl)(2,4-dichlorophenyl)methanone] | – | – | – | – | GI50 [4]: 6500 nM; IC50 (ABL^T315I [5]): 450 nM; IC50 (ABL^wild [6]): 14 nM |
| Cc1cn(-c2cc(NC(=O)c3cccc(C#Cc4cccc5[nH]nc(N)c45)c3)cc(C(F)(F)F)c2)cn1 [Compound No. 11, 3-((3-Amino-1H-indazol-4-yl)ethynyl)-N-(3-(4-methyl-1H-imidazol-1-yl)-5-(trifluoromethyl)phenyl)benzamide] | 21 nM | 140 nM | 15.4 nM | 1060 nM | – |
| Cc1ccc(C(=O)Nc2ccc(CN3CCN(C)CC3)c(C(F)(F)F)c2)cc1C#Cc1cnc2cccnn12 [Ponatinib] | – | – | – | – | share of patients with side effects such as thrombosis or narrowing of blood vessel walls (patients): 20% |
| Nc1n[nH]c2cccc(C#Cc3cccc(C(=O)Nc4ccc(CN5CCOCC5)c(C(F)(F)F)c4)c3)c12 [Compound No. 16] | 16.3 nM | 520 ± 1250 nM | 103 nM | 1360 nM | – |
| Cc1ccc(NC(=O)c2ccc(CN3CCN(C)CC3)cc2)cc1Nc1nccc(-c2cccnc2)n1 [Imatinib] | – | – | – | – | GI50 [4]: 267 ± 30 nM; share of patients in whom effective (CML patients): 67% |
